Patent US9132118B2, “Taxane analogs for the treatment of brain cancer” (Tapestry Pharmaceuticals, Inc., priority 2007, dated 2015)
Read-outs that look alike come from different tables or passages of the source.

Assays:
[1] = tested on: human U251 (glioblastoma) CNS tumor cells; details: for median day of death and median survival time: iv, 240 h
Excerpt: Tumor Model: Each animal was implanted with one million U251 human CNS tumor cells from an in vitro cell line by ic injection with a 25 gauge needle. The day of tumor implantation (May 24, 2006) was designated as day 0. A sufficient number of mice were implanted so that animals with body weights in a range as narrow as possible were selected for the trial on the day of treatment initiation (day 1 after tumor implantation). Animals were randomly assigned to the treatment groups and individually identified by earmark codes.
A portion of this solution was then diluted with the complete vehicle to achieve the lower dosing concentration of 1.2 mg/mL. […] Temozolomide (Temodar, Schering Corporation) was prepared on each day of injection in Klucel+tween 80 at a concentration of 4 mg/mL. Temozolomide was administered within 5 minutes of formulation on the basis of exact body weight using a volume of 0.2 mL/10 g of body weight.
Data Collection: Animal health surveillance was conducted and mortality data were collected daily. The animals were weighed twice weekly starting with the first day of treatment.
Study Duration: The study was terminated 100 days after tumor implantation. Any animal found moribund or whose body weight dropped below 14 g was euthanized prior to study termination.
Parameters Evaluated: Number of 100-day survivors, median day of death, and the increase in lifespan based on median day of death and expressed as a percentage (% ILS), median survival time and the % ILS based on median survival time.
Administration of the Ringer's solution was initiated when animal body weights dropped by greater than 10% and continued until the animal recovered, died, or was euthanized.

[2] = S-(1) Injection mouse PK parameters, IV and oral; type: in vivo
[3] = tested on: central nervous system; experiment: Central nervous system (CNS) safety study in rats; type: in vivo, rat
Experimental: This study was conducted at ClinTrials BioResearch (CTBR, Montreal, Quebec, Canada) as a GLP study.
Results: All animals were observed twice daily for signs of ill health or reaction to treatment, except on day of arrival and necropsy. A Functional Observation Battery
(FOB) assessment, along with grip strength, hind limb splay and body temperature measurements were performed for all animals once pre-dose and at approximately 15 minutes, 1 hour, 4 hours, 8 hours and 24 hours post-dose. After the last observation, all animals were euthanized without further examination.

[4] = tested on: bovine microtubule protein (tubulin plus microtubule associated proteins); experiment: In vitro ED50 MT polymerization study (DAPI fluorescence tubulin assay); type: biochemical
Experimental: In this tubulin binding assay, microtubule protein (MTP) is used as a substrate. The assay contains bovine tubulin plus microtubule associated proteins (MAP). MTP is polymerized into microtubules in the presence of DAPI (4′,6′-diamidino-2-phenylindole), a fluorescent compound. DAPI binds to tubulin; when microtubules are formed and there is an enhancement of fluorescence. The microtubule formation is measured as a function of time, using a fluorescence plate reader. […] The method used is based on the procedure published by Donna M. Barron, et al, “Fluorescence-based high-throughput assay for antimicrotuble drugs” Analytical Biochemistry, 315: 49-56, 2003, which is incorporated by reference in its entirety. The excitation wavelength, in that assay, was set at 370 nm and the emission wavelength was set at 450 nm for the DAPI experiments.
A Bio-Tek FL 600 microplate Fluorescence Reader was used to measure the relative level of fluorescence in the DAPI assay.
Assays were conducted in 96-well plates. […] The final DMSO concentration was 4%. The plates were incubated at 37° C. for 30 minutes and read in a fluorescence plate reader using an excitation wavelength of 360 nm and an emission wavelength of 460 nm. Fluorescence values were corrected for the sample without compound. […] Experiments were done twice in triplicate. Results were subsequently combined and fit to a non-linear regression program.

C=C[C@H]1O[C@H]2CC3OC[C@@]3(OC(C)=O)[C@H]3[C@H](OC(=O)c4ccccc4)[C@]4(C(C)(C)O)C[C@H](OC(=O)[C@H](O)[C@H](CC(C)C)NC(=O)OC(C)(C)C)C(C)=C4[C@H](OC(C)=O)[C@H](O1)[C@]23C (stereo partly drawn) [S-(1)]
median day of death and median survival time ([1]; 12 mg/kg): 14.5 days | median day of death and median survival time ([1]; 20 mg/kg): 16 days | effect against the U251 human CNS tumor cells (in words) ([1]; monotherapy or combination treatment, intracranial xenograft): moderate effect | AUCinf ([2]; IV 10/mg/kg): 7.738 µM·h | AUClast ([2]; IV 10/mg/kg): 6.298 µM·h | CL ([2]; IV 10/mg/kg): 1.49 L/h/kg | Vdss ([2]; IV 10/mg/kg): 13.35 L/kg | t½ ([2]; IV 10/mg/kg): 6.1 h | AUCinf ([2]; Oral 10 mg/kg): 3.609 µM·h | AUClast ([2]; Oral 10 mg/kg): 3.434 µM·h | Cmax ([2]; Oral 10 mg/kg): 460 nM | t½ ([2]; Oral 10 mg/kg): 5.1 h | F ([2]; Oral 10 mg/kg vs IV): 47% | Tmax ([2]; in vivo, Oral 10 mg/kg): 6 h | biological effect on central nervous system (functional observational battery, grip strength, hind limb splay, body temperature) ([3]; single intravenous 6.25, 12.5 or 25 mg/kg, male Sprague Dawley rats, 15 minutes, 1, 4, 8 and 24 hours post-dose): no biological effects | deaths or treatment-related clinical signs ([3]; single intravenous 6.25, 12.5 or 25 mg/kg, male rats): no deaths or treatment-related clinical signs | no adverse effect level ([3]; single intravenous dose, male Sprague Dawley rats): 25 mg/kg | ED50 Compound/ED50 Paclitaxel ([4]; ratio of tubulin polymerization ED50 values): 0.53 | EC50 ([4]; tubulin polymerization, 37° C. 30 minutes, percent of maximum assembly at 25 μM paclitaxel): 1580 ± 460 nM
